Structures can show the parent of a compound that is named as a salt.

One data set has as its system sodium channel. As to the kind of experiment: Guanidine Influx Assay (In Vitro Assay). Type of data set: cell-based, human or rat. The note with it: known cell line that expresses a sodium channel; read-out: IC50 Activity Level. The source says: This example describes an in vitro assay for testing and profiling test agents against human or rat sodium channels stably expressed in cells of either an endogenous or recombinant origin. The assay is also useful for determining the IC-50 of a sodium channel blocking compound. The assay is based on the guanidine flux assay described by Reddy, N. L., et al., J. Med. Chem. (1998), 41(17):3298-302.
The guanidine influx assay is a radiotracer flux assay used to determine ion flux activity of sodium channels in a high-throughput microplate-based format. The assay uses ^14C-guanidine hydrochloride in combination with various known sodium channel modulators, to assay the potency of test agents. Potency is determined by an IC-50 calculation. Selectivity is determined by comparing potency of the compound for the channel of interest to its potency against other sodium channels (also called ‘selectivity profiling’).
Each of the test agents is assayed against cells that express the channels of interest. Voltage gated sodium channels are either TTX sensitive or insensitive. This property is useful when evaluating the activities of a channel of interest when it resides in a mixed population with other sodium channels. The following Table 1 summarizes cell lines useful in screening for a certain channel activity in the presence or absence of TTX.
Cells expressing the channel of interest are grown according to the supplier or in the case of a recombinant cell in the presence of selective growth media such as G418 (Gibco/Invitrogen). The cells are disassociated from the culture dishes with an enzymatic solution (1×) Trypsin/EDTA (Gibco/Invitrogen) and analyzed for density and viability using haemocytometer (Neubauer). Disassociated cells are washed and resuspended in their culture media then plated into Scintiplates (Beckman Coulter Inc.) (approximately 100,000 cells/well) and incubated at 37° C./5% CO2. for 20-24 hours. After an extensive wash with Low sodium HEPES-buffered saline solution (LNHBSS) (150 mM Choline Chloride, […] (Sigma), 1 mM Calcium Chloride, 5 mM Potassium Chloride, 1 mM Magnesium Chloride, 10 mM Glucose) agents diluted with LNHBSS are added to each well. (Varying concentrations of test agent may be used). The activation/radiolabel mixture contains aconitine (Sigma), and ^14C-guanidine hydrochloride (ARC).
After loading the cells with test agent and activation/radiolabel mixture, the Scintiplates are incubated at ambient temperature. Following the incubation, the Scintplates are extensively washed with LNHBSS supplemented with guanidine (Sigma). The Scintiplates are dried and then counted using a Wallac MicroBeta TriLux (Perkin-Elmer Life Sciences). The ability of the test agent to block sodium channel activity is determined by comparing the amount of ^14C-guanidine present inside the cells expressing the different sodium channels.
IC-50 value of a test agent for a specific sodium channel may be determined using the above general method. IC-50 may be determined using a 3,8,10,12 or 16 point curve in duplicate or triplicate with a starting concentration of 1, 5 or 10 μM diluted serially with a final concentration reaching the sub-nanomolar, nanomolar and low micromolar ranges. Typically the mid-point concentration of test agent is set at 1 μM, and sequential concentrations of half dilutions greater or smaller are applied (e.g. 0.5 μM; […] and 0.25 μM; 10 μM and 0.125 μM; 20 μM etc.). The IC-50 curve is calculated using the 4 Parameter Logistic Model or Sigmoidal Dose-Response Model formula (fit=(A+((B−A)/(1+((C/x)̂D)))).
For the compound `CCCCc1nc2cc(C(F)(F)F)ccn2c(=O)c1-c1ccc(N[C@@H]2CCNC2)cc1` [Example 6.8, (R)-2-butyl-3-{4-[pyrrolidin-3-ylamino]phenyl}-8-(trifluoromethyl)-4H-pyrido[1,2-a]pyrimidin-4-one hydrochloride], the IC50 (in general, the concentration that gives 50% inhibition) is at least 10 µM.
On the same count and under the same terms, as for `CC(C)Nc1nc2ccccn2c(=O)c1-c1ccc(N[C@@H]2CCNC2)cc1` [Example 7.10, (R)-2-[(1-methylethyl)amino]-3-{4-[pyrrolidin-3-ylamino]phenyl}-4H-pyrido[1,2-a]pyrimidin-4-one hydrochloride], the figure is at least 10 µM; as for `CCCCc1nc2ccccn2c(=O)c1-c1ccc(N[C@H]2CCNC2)cc1` [Example 7.1, (S)-2-butyl-3-{4-[pyrrolidin-3-ylamino]phenyl}-4H-pyrido[1,2-a]pyrimidin-4-one hydrochloride], at least 10 µM; as for `O=c1c(-c2ccc(N[C@@H]3CCNC3)cc2)c(CCC2CC2)nc2ccccn12` [Example 7.7, (R)-2-(2-cyclopropylethyl)-3-(4-(pyrrolidin-3-ylamino)phenyl)-4H-pyrido[1,2-a]pyrimidin-4-one hydrochloride], 0.1 to 1 µM.
Take `CCCCc1nc2ccccn2c(=O)c1-c1ccc(NC2CCNCC2)cc1` [Example 6.1, 2-butyl-3-[4-(piperidin-4-ylamino)phenyl]-4H-pyrido[1,2-a]pyrimidin-4-one hydrochloride]: the IC50 is at least 10 µM.
Still for that read-out and setting: as for `CCCCc1nc2ccccn2c(=O)c1-c1ccc(N2CCNCC2)nc1` [Example 7.13, 2-butyl-3-(6-piperazin-1-ylpyridin-3-yl)-4H-pyrido[1,2-a]pyrimidin-4-one hydrochloride], the figure is at least 10 µM; as for `CCCCc1nc2ccccn2c(=O)c1-c1ccc(N[C@@H]2CCNC2)c(F)c1` [Example 7.2, (R)-2-butyl-3-{3-fluoro-4-[(pyrrolidin-3-ylamino]phenyl}-4H-pyrido[1,2-a]pyrimidin-4-one hydrochloride], at least 10 µM.
For the compound `CC(C)Nc1nc2ccccn2c(=O)c1-c1ccc(NC2CCNC2)cc1` (stereo not shown) [Example 7.9, 2-[(1-methylethyl)amino]-3-[4-(pyrrolidin-3-ylamino)phenyl]-4H-pyrido[1,2-a]pyrimidin-4-one hydrochloride], the concentration for half-maximal inhibition (IC50) was at least 10 µM.
On the same count and under the same terms, as for `CCCCc1nc2ccccn2c(=O)c1-c1ccc(N[C@@H]2CCCNC2)cc1` [Example 6.2, (R)-2-butyl-3-{4-[piperidin-3-ylamino]phenyl}-4H-pyrido[1,2-a]pyrimidin-4-one hydrochloride], the figure is at least 10 µM.
`CCc1nc2ccccn2c(=O)c1-c1ccc(N[C@@H]2CCN(C(=O)OC(C)(C)C)C2)cc1` [Example 3.4, (R)-tert-butyl 3-(4-(2-ethyl-4-oxo-4H-pyrido[1,2-a]pyrimidin-3-yl)phenylamino)pyrrolidine-1-carboxylate]: the IC50 is at least 10 µM.
As for `CCCCc1nc2ccccn2c(=O)c1-c1ccc(NC2CCCNC2)cc1` (stereo not shown) [Example 6, 2-butyl-3-[4-(piperidin-3-ylamino)phenyl]-4H-pyrido[1,2-a]pyrimidin-4-one hydrochloride], the IC50 was at least 10 µM.
With `CCCCc1nc2ccccn2c(=O)c1-c1ccc(N2CCOCC2)cc1` [Example 3.25, 2-butyl-3-(4-morpholin-4-ylphenyl)-4H-pyrido[1,2-a]pyrimidin-4-one], the IC50 was at least 10 µM.
Take `CCCCc1nc2ccccn2c(=O)c1-c1ccc(NC2CCOCC2)cc1` [Example 3.26, 2-butyl-3-[4-(tetrahydro-2H-pyran-4-ylamino)phenyl]-4H-pyrido[1,2-a]pyrimidin-4-one hydrochloride]: the concentration for half-maximal inhibition (IC50) is at least 10 µM.
On to `CCCCc1nc2ccccn2c(=O)c1-c1ccc(O[C@@H]2CCNC2)cc1` [Example 15, (R)-2-butyl-3-{4-[pyrrolidin-3-yloxy]phenyl}-4H-pyrido[1,2-a]pyrimidin-4-one hydrochloride], for which the IC50 is at least 10 µM.
Same read-out and setting: as for `O=c1c(-c2ccc(N[C@@H]3CCNC3)cc2)c(N2CCCC2)nc2ccccn12` [Example 7.11, (R)-2-pyrrolidin-1-yl-3-{4-[pyrrolidin-3-ylamino]phenyl}-4H-pyrido[1,2-a]pyrimidin-4-one hydrogen chloride], the figure is at least 10 µM; as for `CCCCc1nc2ccccn2c(=O)c1-c1ccc(OS(=O)(=O)C(F)(F)F)cc1` [Example 12, 4-(2-butyl-4-oxo-4H-pyrido[1,2-a]pyrimidin-3-yl)phenyl trifluoromethanesulfonate], at least 10 µM.
Take `COc1nc2ccccn2c(=O)c1-c1ccc(NC2CCNC2)cc1` (stereo not shown) [Example 9, 2-methoxy-3-[4-(pyrrolidin-3-ylamino)phenyl]-4H-pyrido[1,2-a]pyrimidin-4-one trifluoroacetate]: the concentration for half-maximal inhibition (IC50) was at least 10 µM.
Regarding `CCCCc1nc2ccccn2c(=O)c1-c1ccc(NC[C@@H]2CCCO2)cc1` [Example 3.28, (S)-2-butyl-3-(4-{[tetrahydrofuran-2-ylmethyl]amino}phenyl)-4H-pyrido[1,2-a]pyrimidin-4-one hydrochloride], the concentration for half-maximal inhibition (IC50) was at least 10 µM.
`CCCCc1nc2ccccn2c(=O)c1-c1ccc2c(c1)CCN2C1CCNC1` (stereo not shown) [Example 7.12, 2-butyl-3-(1-(pyrrolidin-3-yl)indolin-5-yl)-4H-pyrido[1,2-a]pyrimidin-4-one hydrochloride]: the IC50 is at least 10 µM.
Take `CCCCc1nc2ccccn2c(=O)c1-c1ccc2c(c1)CCN2` [Example 2, 2-butyl-3-(indolin-5-yl)-4H-pyrido[1,2-a]pyrimidin-4-one hydrochloride]: the IC50 was at least 10 µM.
Turning to `CC(C)c1nc2ccccn2c(=O)c1-c1ccc(NC2CCNC2)cc1` (stereo not shown) [Example 7.5, 2-(1-methylethyl)-3-[4-(pyrrolidin-3-ylamino)phenyl]-4H-pyrido[1,2-a]pyrimidin-4-one hydrochloride], the half-maximal inhibitory concentration (IC50) was at least 10 µM.

System in another data set: not given
Experiment: not given
Settings: not given
Regarding `COc1nc2ccccn2c(=O)c1-c1ccc(NC2CCNC2)cc1` (stereo not shown) (as salt: trifluoroacetate) [Example 9, 2-methoxy-3-[4-(pyrrolidin-3-ylamino)phenyl]-4H-pyrido[1,2-a]pyrimidin-4-one trifluoroacetate], the melting point (usually the temperature of the solid-liquid transition) is 56 to 58 °C.
The same measure, in the same setting: to `O=c1c(-c2ccc(N[C@@H]3CCNC3)cc2)c(CCC2CC2)nc2ccccn12` (as salt: hydrochloride) [Example 7.7, (R)-2-(2-cyclopropylethyl)-3-(4-(pyrrolidin-3-ylamino)phenyl)-4H-pyrido[1,2-a]pyrimidin-4-one hydrochloride] belongs 182 to 185 °C; to `CCCCc1nc2ccccn2c(=O)c1-c1ccc(N[C@@H]2CCN(C(=O)OC(C)(C)C)C2)cc1` [Example 3.9, (R)-tert-butyl 3-(4-(2-butyl-4-oxo-4H-pyrido[1,2-a]pyrimidin-3-yl)phenylamino)pyrrolidine-1-carboxylate], 98 to 99 °C; to `CC(C)CCc1nc2ccccn2c(=O)c1-c1ccc(N[C@@H]2CCNC2)cc1` (as salt: hydrochloride) [Example 7.6, (R)-2-isopentyl-3-(4-(pyrrolidin-3-ylamino)phenyl)-4H-pyrido[1,2-a]pyrimidin-4-one hydrochloride], 171 to 187 °C.
The compound `CCCCc1nc2ccccn2c(=O)c1-c1ccc(Cl)c(C)c1` [Example 1.10, 2-butyl-3-(4-chloro-3-methylphenyl)-4H-pyrido[1,2-a]pyrimidin-4-one] gave a melting point of 122 to 124 °C.
Same read-out and setting: as for `CCCCc1nc2ccccn2c(=O)c1-c1ccc2c(c1)CCN2` (as salt: hydrochloride) [Example 2, 2-butyl-3-(indolin-5-yl)-4H-pyrido[1,2-a]pyrimidin-4-one hydrochloride], the figure is 157 to 162 °C; as for `CCCCc1nc2ccccn2c(=O)c1-c1cccc(NC2CCNC2)c1` (stereo not shown) (as salt: hydrochloride) [Example 7.4, 2-butyl-3-[3-(pyrrolidin-3-ylamino)phenyl]-4H-pyrido[1,2-a]pyrimidin-4-one hydrochloride], over 170 °C.

The values are drawn from patent publication US20080194616A1, “PYRIDOPYRIMIDINONE COMPOUNDS USEFUL IN TREATING SODIUM CHANNEL-MEDIATED DISEASES OR CONDITIONS” (Xenon Pharmaceuticals Inc., priority 2007, published 2008).
